Assay results published in publication PMC10301432, “Antiplasmodial, Trypanocidal, and Genotoxicity In Vitro Assessment of New Hybrid α,α-Difluorophenylacetamide-statin Derivatives” (Pharmaceuticals, 2023).
Entries after “also recorded” stand apart in the source; their conditions may differ. Read-outs that look alike come from different tables or passages of the source.

Key:
[1] = tested on: Salmonella enterica serovar Typhimurium TA102
[2] = Salmonella/microsome assay, TA104; conditions: Salmonella enterica serovar Typhimurium, S. typhimurium TA104 with S9 mix, LC50 (bacterial cytotoxicity) TA104, presence of S9 mix
Description: (§1) Salmonella enterica serovar Typhimurium (S. typhimurium) strains TA97, TA98, TA100, TA104 and TA102 from the authors’ stock were used as described in the mutagenicity assay.
(§2) To determine the cytotoxic effects, after 30 min pre-incubation, the assay mixtures were diluted in 0.9% NaCl (w/v) to obtain a suspension containing 2 × 10^2 cells/mL. […] The plates were then incubated at 37 °C for 24 h and the colonies counted. All the experiments were conducted in triplicate and were repeated at least twice. Statistical differences between the groups were analyzed by a two-way ANOVA (p < 0.05) and Tukey’s post hoc test.

[3] = tested on: Salmonella enterica serovar Typhimurium TA104; test: Salmonella/microsome assay, TA104
Description: as §1, §2

[4] = tested on: intracellular forms of T. cruzi (Tulahuen strain transfected with β-galactosidase); test: Activity against intracellular T. cruzi in L929 cells; type: cell-based, Trypanosoma cruzi; conditions: for SI: LC50 (L929)/EC50 (intracellular forms); for EC50: Trypanosoma cruzi, TULAHUEN, L929, 96 h, intracellular forms, Tulahuen strain, 96 h
Description: Tissue culture-derived trypomastigotes (Tulahuen strain expressing the E. coli β-galactosidase gene) were maintained in L929 cell lines and collected from the supernatant after 96 h of parasite infection, following previously established protocols. Briefly, after 24 h of L929 platting (4 × 10^3 cells/well), the cultures were incubated with trypomastigotes (10:1 parasite/host cell ratio) for 2 h at 37 °C. Then, the cell cultures were rinsed to remove non-internalized parasites and then further incubated for 24 h at 37 °C. Then the infected cultures were followed using two sequential protocols. […] After this period, 50 µL chlorophenol red glycoside (500 µM) in 0.5% Nonidet P40 was added to each well and the plate was incubated for more than 18 h at 37 °C, after which the absorbance was measured at 570 nm. […] Controls with untreated and Bz-treated cells are run in parallel. The results were expressed as the percent difference in the reduction between treated and untreated cells.

[5] = tested on: Salmonella enterica serovar Typhimurium TA97; test: Salmonella/microsome assay, TA97; conditions: for mutagenicity to TA97: at concentrations above 300 µM
Description: as §1, §2

T. cruzi = test: Trypanocidal in vitro phenotypic screening, overall outcome; type: cell-based, Trypanosoma cruzi; conditions: summarized outcome
Description: Bloodstream trypomastigote forms (BT) of the Y strain were obtained from infected albino Swiss mice at the peak of parasitemia, isolated by differential centrifugation and resuspended in DMEM to a parasite concentration of 10^7 cells/mL in the presence of 10% of mouse blood. This suspension (100 µL) was added in the same volume of 13 (a–d) and 14 (a–d) previously prepared at twice the desired final concentrations.
Tissue culture-derived trypomastigotes (Tulahuen strain expressing the E. coli β-galactosidase gene) were maintained in L929 cell lines and collected from the supernatant after 96 h of parasite infection, following previously established protocols. Briefly, after 24 h of L929 platting (4 × 10^3 cells/well), the cultures were incubated with trypomastigotes (10:1 parasite/host cell ratio) for 2 h at 37 °C. Then, the cell cultures were rinsed to remove non-internalized parasites and then further incubated for 24 h at 37 °C. Then the infected cultures were followed using two sequential protocols. […] After this period, 50 µL chlorophenol red glycoside (500 µM) in 0.5% Nonidet P40 was added to each well and the plate was incubated for more than 18 h at 37 °C, after which the absorbance was measured at 570 nm. Then, the compounds were next evaluated using dose–response assays in which Tulahuen-infected-L929 cells were exposed to different non-toxic concentrations of each compound (0–50 µM) and then after 96 h of incubation the same procedure was conducted as above reported. Controls with untreated and Bz-treated cells are run in parallel. The results were expressed as the percent difference in the reduction between treated and untreated cells.

[6] = tested on: human hepatoma cell line (HepG2); test: in vitro; type: cell-based; conditions: preliminary cytotoxicity, HepG2
In short: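 Cells grown in MEM with 10% FBS at 37 °C, 5% CO2, and seeded at 1 × 10^4/well. After treatment, viability read by WST-1 over 3 h incubation, absorbance at 440 nm.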

[7] = tested on: Salmonella enterica serovar Typhimurium TA98; test: Salmonella/microsome assay, TA98
Description: as §1, §2

[8] = Salmonella/microsome assay, TA100; conditions: Salmonella enterica serovar Typhimurium, S. typhimurium TA100 without S9 mix, pH 7.4
[9] = Salmonella/microsome assay, TA97; conditions: Salmonella enterica serovar Typhimurium, S. typhimurium TA97 without S9 mix, pH 7.4
Description: as §1, §2

[10] = Salmonella/microsome assay, TA98; conditions: Salmonella enterica serovar Typhimurium, S. typhimurium TA98 without S9 mix, pH 7.4
Description: as §1, §2

CC(=O)Nc1ccc(Cl)cc1C(F)(F)C(=O)NCC[C@@H]1C[C@H](CC(=O)OC(C)(C)C)OC(C)(C)O1 [Compound 13c, tert-Butyl 2-((4R,6R)-6-(2-(2-(2-acetamido-5-chlorophenyl)-2,2-difluoroacetamido)ethyl)-2,2-dimethyl-1,3-dioxan-4-yl)acetate]
revertant His+ colonies TA102 ([1]; +S9, 3 µM): 392 ± 8 | revertant His+ colonies TA102 ([1]; +S9, 15 µM): 390 ± 12 | revertant His+ colonies TA102 ([1]; +S9, 30 µM): 402 ± 24 | revertant His+ colonies TA102 ([1]; +S9, 150 µM): 401 ± 66 | revertant His+ colonies TA102 ([1]; +S9, 300 µM): 403 ± 12 | revertant His+ colonies TA102 ([1]; +S9, 1500 µM): 430 ± 14 | revertant His+ colonies TA102 ([1]; −S9, 3 µM): 373 ± 50 | revertant His+ colonies TA102 ([1]; −S9, 15 µM): 386 ± 35 | revertant His+ colonies TA102 ([1]; −S9, 30 µM): 387 ± 33 | revertant His+ colonies TA102 ([1]; −S9, 150 µM): 386 ± 5 | revertant His+ colonies TA102 ([1]; −S9, 300 µM): 400 ± 24 | revertant His+ colonies TA102 ([1]; −S9, 1500 µM): 450 ± 32 | CC50 at 30 min [2]: 1.39 ± 0.0148 mM | revertant His+ colonies TA104 ([3]; +S9, 3 µM): 384 ± 34 | revertant His+ colonies TA104 ([3]; +S9, 15 µM): 401 ± 31 | revertant His+ colonies TA104 ([3]; +S9, 30 µM): 445 ± 49 | revertant His+ colonies TA104 ([3]; +S9, 150 µM): 305 ± 7 | revertant His+ colonies TA104 ([3]; +S9, 300 µM): 297 ± 4 | revertant His+ colonies TA104 ([3]; +S9, 1500 µM): Cytotoxic | CC50 ([3]; read-out: LC50 (bacterial cytotoxicity) TA104, presence of S9 mix): > 1.2 mM | revertant His+ colonies TA104 ([3]; −S9, 3 µM): 195 ± 9 | revertant His+ colonies TA104 ([3]; −S9, 15 µM): 199 ± 7 | revertant His+ colonies TA104 ([3]; −S9, 30 µM): 192 ± 3 | revertant His+ colonies TA104 ([3]; −S9, 150 µM): 201 ± 17 | revertant His+ colonies TA104 ([3]; −S9, 300 µM): 206 ± 8 | revertant His+ colonies TA104 ([3]; −S9, 1500 µM): 241 ± 10 | SI [4]: 16.7 | EC50 [4]: 0.00924 ± 0.00106 mM | revertant His+ colonies TA97 ([5]; +S9, 3 µM): 219 ± 16 | revertant His+ colonies TA97 ([5]; +S9, 15 µM): 245 ± 22 | revertant His+ colonies TA97 ([5]; +S9, 30 µM): 247 ± 14 | revertant His+ colonies TA97 ([5]; +S9, 150 µM): 249 ± 17 | revertant His+ colonies TA97 ([5]; +S9, 300 µM): 259 ± 1 | revertant His+ colonies TA97 ([5]; +S9, 1500 µM): 261 ± 13 | revertant His+ colonies TA97 ([5]; −S9, 3 µM): 81 ± 6 | revertant His+ colonies TA97 ([5]; −S9, 15 µM): 84 ± 8 | revertant His+ colonies TA97 ([5]; −S9, 30 µM): 84 ± 6 | revertant His+ colonies TA97 ([5]; −S9, 150 µM): 70 ± 6 | revertant His+ colonies TA97 ([5]; −S9, 300 µM): 71 ± 11 | revertant His+ colonies TA97 ([5]; −S9, 1500 µM): 62 ± 9 | Trypanocidal Activity (T. cruzi): Yes | lack of toxic events up to [6]: up to 400 μM | revertant His+ colonies TA98 ([7]; +S9, 3 µM): 34 ± 4 | revertant His+ colonies TA98 ([7]; +S9, 15 µM): 35 ± 3 | revertant His+ colonies TA98 ([7]; +S9, 30 µM): 39 ± 3 | revertant His+ colonies TA98 ([7]; +S9, 150 µM): 37 ± 7 | revertant His+ colonies TA98 ([7]; +S9, 300 µM): 47 ± 4 | revertant His+ colonies TA98 ([7]; +S9, 1500 µM): 49 ± 5 | revertant His+ colonies TA98 ([7]; −S9, 3 µM): 21 ± 2 | revertant His+ colonies TA98 ([7]; −S9, 15 µM): 21 ± 5 | revertant His+ colonies TA98 ([7]; −S9, 30 µM): 21 ± 3 | revertant His+ colonies TA98 ([7]; −S9, 150 µM): 21 ± 2 | revertant His+ colonies TA98 ([7]; −S9, 300 µM): 21 ± 1 | revertant His+ colonies TA98 ([7]; −S9, 1500 µM): 23 ± 4

CC(=O)Nc1ccc(Br)cc1C(F)(F)C(=O)NCC[C@@H]1C[C@H](CC(=O)OC(C)(C)C)OC(C)(C)O1 [Compound 13d, tert-Butyl 2-((4R,6R)-6-(2-(2-(2-acetamido-5-bromophenyl)-2,2-difluoroacetamido)ethyl)-2,2-dimethyl-1,3-dioxan-4-yl)acetate]
revertant His+ colonies TA102 ([1]; +S9, 3 µM): 153 ± 13 | revertant His+ colonies TA102 ([1]; +S9, 15 µM): 155 ± 20 | revertant His+ colonies TA102 ([1]; +S9, 30 µM): 160 ± 11 | revertant His+ colonies TA102 ([1]; +S9, 150 µM): 162 ± 31 | revertant His+ colonies TA102 ([1]; +S9, 300 µM): 176 ± 11 | revertant His+ colonies TA102 ([1]; +S9, 1500 µM): Cytotoxic | revertant His+ colonies TA102 ([1]; −S9, 3 µM): 356 ± 7 | revertant His+ colonies TA102 ([1]; −S9, 15 µM): Cytotoxic | revertant His+ colonies TA104 ([3]; +S9, 3 µM): 490 ± 52 | revertant His+ colonies TA104 ([3]; +S9, 15 µM): 513 ± 19 | revertant His+ colonies TA104 ([3]; +S9, 30 µM): 530 ± 7 | revertant His+ colonies TA104 ([3]; +S9, 150 µM): 541 ± 29 | revertant His+ colonies TA104 ([3]; +S9, 300 µM): 589 ± 5 | revertant His+ colonies TA104 ([3]; +S9, 1500 µM): 591 ± 11 | revertant His+ colonies TA104 ([3]; −S9, 3 µM): 469 ± 65 | revertant His+ colonies TA104 ([3]; −S9, 15 µM): 515 ± 61 | revertant His+ colonies TA104 ([3]; −S9, 30 µM): 570 ± 53 | revertant His+ colonies TA104 ([3]; −S9, 150 µM): 605 ± 61 | revertant His+ colonies TA104 ([3]; −S9, 300 µM): 615 ± 15 | revertant His+ colonies TA104 ([3]; −S9, 1500 µM): 620 ± 31 | CC50 at 30 min [8]: 0.12 ± 0.0141 mM | SI [4]: 10 | EC50 [4]: 0.0114 ± 0.00329 mM | revertant His+ colonies TA97 ([5]; +S9, 3 µM): 134 ± 3 | revertant His+ colonies TA97 ([5]; +S9, 15 µM): 135 ± 1 | revertant His+ colonies TA97 ([5]; +S9, 30 µM): 201 ± 4 | revertant His+ colonies TA97 ([5]; +S9, 150 µM): 203 ± 1 | revertant His+ colonies TA97 ([5]; +S9, 300 µM): 288 ± 6 | revertant His+ colonies TA97 ([5]; +S9, 1500 µM): 410 ± 10 | mutagenicity to TA97 ([5]; +S9): significant mutagenicity; also recorded: mutagenic | revertant His+ colonies TA97 ([5]; −S9, 3 µM): 119 ± 8 | revertant His+ colonies TA97 ([5]; −S9, 15 µM): 137 ± 1 | revertant His+ colonies TA97 ([5]; −S9, 30 µM): 135 ± 4 | revertant His+ colonies TA97 ([5]; −S9, 150 µM): 134 ± 4 | revertant His+ colonies TA97 ([5]; −S9, 300 µM): 146 ± 6 | revertant His+ colonies TA97 ([5]; −S9, 1500 µM): Cytotoxic | mutagenicity to TA97 ([5]; −S9): significant mutagenicity; also recorded: mutagenic | CC50 at 30 min [9]: 1.49 ± 0.0365 mM | Trypanocidal Activity (T. cruzi): Yes | revertant His+ colonies TA98 ([7]; +S9, 3 µM): 28 ± 1 | revertant His+ colonies TA98 ([7]; +S9, 15 µM): 28 ± 5 | revertant His+ colonies TA98 ([7]; +S9, 30 µM): 31 ± 7 | revertant His+ colonies TA98 ([7]; +S9, 150 µM): 34 ± 2 | revertant His+ colonies TA98 ([7]; +S9, 300 µM): 34 ± 4 | revertant His+ colonies TA98 ([7]; +S9, 1500 µM): 35 ± 3 | revertant His+ colonies TA98 ([7]; −S9, 3 µM): 22 ± 7 | revertant His+ colonies TA98 ([7]; −S9, 15 µM): 23 ± 5 | revertant His+ colonies TA98 ([7]; −S9, 30 µM): 25 ± 1 | revertant His+ colonies TA98 ([7]; −S9, 150 µM): 25 ± 1 | revertant His+ colonies TA98 ([7]; −S9, 300 µM): 27 ± 5 | revertant His+ colonies TA98 ([7]; −S9, 1500 µM): Cytotoxic | CC50 at 30 min [10]: 1.26 ± 0.0468 mM
